The values below come from patent US5416222A, “3-pyrrolidine methanamines wherein the alpha-carbon is substituted by 1 or 2 lower alkyl groups which are intermediates for pyridone-carboxylic acid derivatives” (Daiichi Seiyaku Co., Ltd., priority 1985, dated 1995).

In brackets after ≈: the same amount, converted by molar mass.

Experiment in all cases: antimicrobial activity, MIC, standard process of Japan Society of Chemotherapy
Common to all, as to type: cell-based

One assay deals with S. aureus, 209P. As to conditions: for MIC: Staphylococcus aureus, read-out: minimum growth inhibitory concentration (MIC). As for the experimental part:
(§1) The antimicrobial activities of the compounds of the present invention were determined according to a standard process designated by the Japan Society of Chemotherapy and the minimum growth inhibitory concentrations (MIC) (μg/ml) the compounds were determined.

Another assay deals with Ser. marcescens, 13001. As to conditions: for MIC: Serratia marcescens, 13001, Ser. marcescens, read-out: minimum growth inhibitory concentration (MIC). The method, then:
as §1

The next assay concerns Str. pyogenes, G-36. The note with it: for MIC: Streptococcus pyogenes, G36, Str. pyogenes, read-out: minimum growth inhibitory concentration (MIC); for minimum growth inhibitory concentration (MIC): Str. pyogenes. As for the experimental part:
as §1

The subject of another assay is E. coli, NIHJ. The note with it: for MIC: Escherichia coli, read-out: minimum growth inhibitory concentration (MIC). As for the experimental part:
as §1

Another assay concerns S. epidermidis, 56500. The note with it: for MIC: Staphylococcus epidermidis, 56500, S. epidermidis, read-out: minimum growth inhibitory concentration (MIC). The method, then:
as §1

For another assay, the system named is Ps. cepacia, IID1340. As to conditions: for MIC: Burkholderia cepacia, IID1340, Ps. cepacia, read-out: minimum growth inhibitory concentration (MIC). As for the experimental part:
as §1

A further assay relates to Pr. mirabilis, IF03849. As to conditions: for MIC: Proteus mirabilis, IF03849, Pr. mirabilis, read-out: minimum growth inhibitory concentration (MIC); for minimum growth inhibitory concentration (MIC): Pr. mirabilis. The method, then: as §1
Another assay concerns Ps. aeruginosa, 2128. As to conditions: for MIC: Pseudomonas aeruginosa, 2128, Ps. aeruginosa, read-out: minimum growth inhibitory concentration (MIC). As for the experimental part: as §1
The test system of another assay is Sh. flexneri, 2a5503. As to conditions: for MIC: Shigella flexneri, read-out: minimum growth inhibitory concentration (MIC). The method, then:
as §1

A further assay concerns Ps. maltophilia, IID1275. As to conditions: for MIC: Stenotrophomonas maltophilia, IID1275, Ps. maltophilia, read-out: minimum growth inhibitory concentration (MIC). The method, then: as §1
In a further assay the test system is Pr. vulgaris, 3167. As to conditions: for MIC: Proteus vulgaris, 3167, Pr. vulgaris, read-out: minimum growth inhibitory concentration (MIC). The method, then: as §1
The next assay relates to Ps. aeruginosa, 2063. The note with it: for MIC: Pseudomonas aeruginosa, 2063, Ps. aeruginosa, read-out: minimum growth inhibitory concentration (MIC). The method, then:
as §1

Assay [1] has as its system Str. faecalis, ATCC 19433. The note with it: for MIC: Enterococcus faecalis, ATCC19433, Str. faecalis, read-out: minimum growth inhibitory concentration (MIC); for minimum growth inhibitory concentration (MIC): Str. faecalis. The method, then:
as §1

For the compound `CNC(C)C1CCN(c2nc3c(cc2F)c(=O)c(C(=O)O)cn3C2CC2)C1` (centres unmarked) [Example 8], the MIC in the assay with S. aureus, 209P is 0.1 µg/mL (≈ 0.267 µM); in the assay on Ser. marcescens, 13001, 0.39 µg/mL (≈ 1.04 µM); with Str. pyogenes, G-36, 0.78 µg/mL (≈ 2.08 µM); in the assay on E. coli, NIHJ, at most 0.05 µg/mL; with S. epidermidis, 56500 it was 0.2 µg/mL (≈ 0.534 µM); in the assay with Ps. cepacia, IID1340, 1.56 µg/mL (≈ 4.17 µM). In addition, the MIC in the assay on Pr. mirabilis, IF03849 was 0.39 µg/mL (≈ 1.04 µM); in the assay on Ps. aeruginosa, 2128, 0.39 µg/mL (≈ 1.04 µM); in the assay with Sh. flexneri, 2a5503 it was at most 0.05 µg/mL; in the assay with Ps. maltophilia, IID1275, 0.78 µg/mL (≈ 2.08 µM); in the assay with Pr. vulgaris, 3167, 0.1 µg/mL (≈ 0.267 µM); in the assay with Ps. aeruginosa, 2063 it was 1.56 µg/mL (≈ 4.17 µM). Moreover, the MIC in assay [1] stood at 0.39 µg/mL (≈ 1.04 µM).

As to `CNC(C)(C)C1CCN(c2c(F)cc3c(=O)c(C(=O)O)cn(C4CC4)c3c2F)C1` (centres unmarked) [Example 14, 1-Cyclopropyl-6,8-difluoro-1,4-dihydro-7-[3-(1-methyl-1-methylamino)ethyl-1-pyrrolidinyl]-4-oxoquinoline-3-carboxylic acid], the MIC is 0.2 µg/mL (≈ 0.493 µM) with S. aureus, 209P; 0.39 µg/mL (≈ 0.962 µM) in the assay on Ser. marcescens, 13001; 0.1 µg/mL (≈ 0.247 µM) in the assay with Str. pyogenes, G-36; at most 0.05 µg/mL in the assay with E. coli, NIHJ; 0.2 µg/mL (≈ 0.493 µM) with S. epidermidis, 56500; 1.56 µg/mL (≈ 3.85 µM) in the assay with Ps. cepacia, IID1340. Further, the MIC is 0.2 µg/mL (≈ 0.493 µM) in the assay with Pr. mirabilis, IF03849; 0.39 µg/mL (≈ 0.962 µM) with Ps. aeruginosa, 2128; at most 0.05 µg/mL in the assay with Sh. flexneri, 2a5503; 0.39 µg/mL (≈ 0.962 µM) with Ps. maltophilia, IID1275; 0.2 µg/mL (≈ 0.493 µM) in the assay on Pr. vulgaris, 3167; 3.13 µg/mL (≈ 7.72 µM) in the assay with Ps. aeruginosa, 2063. Besides, the MIC in [1] is 0.1 µg/mL (≈ 0.247 µM).

As to `CNC(C)C1CCN(c2c(F)cc3c(=O)c(C(=O)O)cn(C4CC4)c3c2F)C1` (single isomer, unassigned) [Example 6, 1-Cyclopropyl-6,8-difluoro-1,4-dihydro-7-[3-(1-methylaminoethyl)-1-pyrrolidinyl]-4-oxoquinoline-3-carboxylic acid], the MIC is at most 0.05 µg/mL in the assay with S. aureus, 209P; 0.2 µg/mL (≈ 0.511 µM) in the assay with Ser. marcescens, 13001; at most 0.05 µg/mL in the assay on E. coli, NIHJ; 0.1 µg/mL (≈ 0.255 µM) in the assay with S. epidermidis, 56500; 0.78 µg/mL (≈ 1.99 µM) in the assay with Ps. cepacia, IID1340; 0.2 µg/mL (≈ 0.511 µM) with Ps. aeruginosa, 2128. In addition, the MIC is at most 0.05 µg/mL in the assay with Sh. flexneri, 2a5503; 0.2 µg/mL (≈ 0.511 µM) in the assay on Ps. maltophilia, IID1275; 0.1 µg/mL (≈ 0.255 µM) in the assay on Pr. vulgaris, 3167; 0.39 µg/mL (≈ 0.996 µM) in the assay with Ps. aeruginosa, 2063. For the same compound, the “minimum growth inhibitory concentration (MIC)” value came to 0.20 µg/mL with Str. pyogenes, G-36; 0.20 µg/mL in the assay on Pr. mirabilis, IF03849; 0.20 µg/mL in [1].

Regarding `NC1(C2CCN(c3c(F)cc4c(=O)c(C(=O)O)cn(C5CC5)c4c3F)C2)CC1` (centres unmarked) [Example 15], the MIC in the assay on S. aureus, 209P is at most 0.05 µg/mL; in the assay with Ser. marcescens, 13001 it was 0.2 µg/mL (≈ 0.514 µM); with Str. pyogenes, G-36 it was at most 0.05 µg/mL; in the assay on E. coli, NIHJ, at most 0.05 µg/mL; in the assay with S. epidermidis, 56500 it was at most 0.05 µg/mL; in the assay on Ps. cepacia, IID1340, 0.39 µg/mL (≈ 1 µM). In addition, the MIC is 0.2 µg/mL (≈ 0.514 µM) in the assay with Pr. mirabilis, IF03849; 0.2 µg/mL (≈ 0.514 µM) with Ps. aeruginosa, 2128; at most 0.05 µg/mL in the assay on Sh. flexneri, 2a5503; 0.2 µg/mL (≈ 0.514 µM) with Ps. maltophilia, IID1275; 0.1 µg/mL (≈ 0.257 µM) in the assay on Pr. vulgaris, 3167; 0.39 µg/mL (≈ 1 µM) with Ps. aeruginosa, 2063. For the same compound, in assay [1], the MIC came out at 0.2 µg/mL (≈ 0.514 µM).

Consider `CC(N)C1CCN(c2nc3c(cc2F)c(=O)c(C(=O)O)cn3C2CC2)C1` (centres unmarked) [Example 18, 7-[3-(1-Aminoethyl)-1-pyrrolidinyl]-1-1-cyclopropyl-6-fluoro-1,4-dihydro-4-oxo-1,8-naphthylidine-3-carboxylic acid], for which the “minimum growth inhibitory concentration (MIC)” value in the assay with S. aureus, 209P was at most 0.05 µg/mL; in the assay with Ser. marcescens, 13001 (Ser. marcescens), 0.20 µg/mL; in the assay with Str. pyogenes, G-36, 0.39 µg/mL; in the assay with E. coli, NIHJ it was at most 0.05 µg/mL; with S. epidermidis, 56500 (S. epidermidis) it was at most 0.05 µg/mL; in the assay with Ps. cepacia, IID1340 (Ps. cepacia), 0.39 µg/mL. The “minimum growth inhibitory concentration (MIC)” value is 0.20 µg/mL in the assay on Pr. mirabilis, IF03849; 0.20 µg/mL with Ps. aeruginosa, 2128 (Ps. aeruginosa); at most 0.05 µg/mL in the assay on Sh. flexneri, 2a5503; 0.20 µg/mL in the assay with Ps. maltophilia, IID1275 (Ps. maltophilia); 0.10 µg/mL in the assay with Pr. vulgaris, 3167 (Pr. vulgaris); 0.39 µg/mL in the assay with Ps. aeruginosa, 2063 (Ps. aeruginosa). The “minimum growth inhibitory concentration (MIC)” value in assay [1] worked out at 0.20 µg/mL.
